Test results: patent publication US20220409593A1 (ARKUDA THERAPEUTICS, priority 2019, published 2022)

test system: secreted mouse PGRN; assay: progranulin induction cellular assay (PGRN assay, ELISA-based readout); conditions: Mus musculus, progranulin secreted into cell culture medium, cells named in method: mouse primary microglia, primary cortical neurons, BV-2
Protocol: Cellular Assays: To measure the efficacy of compounds, a progranulin induction cellular assay in mouse primary microglia (pMG), primary cortical neurons, and BV-2 cell lines is used. BV-2 cells are split the day before plating into a 96well plate format at approximately 80%. Cells should be plated the day before and allowed for 1 hour attachment period and for 16 hour incubation. Levels of progranulin secreted into the cell culture medium or retained in the cell lysate can be quantified using an ELISA-based readout and measurement of secreted mouse PGRN in the medium was assessed by the methodology published by Ghidoni et al. 2012. Standard ELISA kits to measure PGRN are available from vendors such as Adipogen, R&D, and Biovendor.
Table D below presents the results of a PGRN assay as described above.

With CN(C)[C@H]1C[C@@]2(CN=C(N3CCc4ccccc4[C@@H]3c3ccc(F)cc3)O2)C1 (single isomer, unassigned) [Compound 3159] as the molecule, how does the EC50 read?
The EC50 was 209 nM.

For Fc1ccc([C@H]2c3ccccc3CCN2C2=NCC3(CNCCC3F)O2)cc1 (stereo partly drawn) [Compound 3035, 10-fluoro-2-((S)-1-(4-fluorophenyl)-3,4-dihydroisoquinolin-2(1H)-yl)-1-oxa-3,7-diazaspiro[4.5]dec-2-ene], which EC50 is on record?
Its EC50 is 620 nM.

For Fc1ccc([C@H]2c3ccccc3CCN2C2=NC[C@@H]([C@@H]3CCCNC3)O2)cc1 (single isomer, unassigned) [Compound 3149], which EC50 is on record?
Its EC50 is 481 nM.

How did the EC50 turn out when CN1CCC(F)[C@]2(CN=C(N3CCc4ccccc4[C@@H]3c3ccc(F)cc3)O2)C1 (single isomer, unassigned) [Compound 3046] was run?
Its EC50 is 3370 nM.

For Fc1cccc([C@H]2c3ccccc3CCN2C2=NC[C@]3(CN4CCC3CC4)O2)c1 (stereo in doubt) [Compound 3021], which EC50 is on record?
Its EC50 is > 10000 nM.

Fc1ccc([C@H]2c3ccccc3CCN2C2=NC[C@]3(CCN(CCC(F)(F)F)C3)O2)cc1 [Compound 3173, (R)-2-((S)-1-(4-fluorophenyl)-3,4-dihydroisoquinolin-2(1H)-yl)-7-(3,3,3-trifluoropropyl)-1-oxa-3,7-diazaspiro[4.4]non-2-ene] was tested. Which EC50 did it give?
The EC50 was 1040 nM.

Which EC50 does the source give for Fc1ccc([C@H]2c3ccccc3CCN2C2=NC[C@]3(CCNC3)O2)cc1 (single isomer, unassigned) [Compound 3050] here?
The EC50 was 15 nM.

How did the EC50 turn out when Fc1ccc([C@H]2c3ccccc3CCN2C2=N[C@H](C3CCNCC3)CO2)cc1 (single isomer, unassigned) [Compound 3134] was run?
The EC50 was 312 nM.

With Fc1ccc([C@H]2c3ccccc3CCN2C2=NC[C@@H]([C@@H]3CCNC3)O2)cc1 (single isomer, unassigned) [Compound 3066] as the molecule, how does the EC50 read?
Its EC50 is 55 nM.

Which EC50 does the source give for Fc1ccc([C@H]2c3ccccc3CCN2C2=N[C@@]3(CCCNC3)CO2)cc1 (single isomer, unassigned) [Compound 3054] here?
Its EC50 is 110 nM.

For CN1CCC[C@]2(CN=C(N3CCc4ccccc4[C@@H]3c3cccc(F)c3F)O2)C1 (stereo in doubt) [Compound 3043], which EC50 is on record?
The EC50 was 3860 nM.

CN(C)[C@@H]1CC[C@@]2(CN=C(N3CCc4ccccc4[C@@H]3c3ccc(F)cc3)O2)C1 (single isomer, unassigned) [Compound 3163] was tested. Which EC50 did it give?
Its EC50 is 237 nM.

Fc1ccc([C@H]2c3ccccc3CCN2C2=N[C@@]3(CO2)CN2CCC3CC2)cc1 (single isomer, unassigned) [Compound 3057B] was tested. Which EC50 did it give?
The EC50 was 126 nM.

CN1CCC[C@]2(CN=C(N3CCc4ccccc4[C@H]3c3cccc(F)c3)O2)C1 (single isomer, unassigned) [Compound 3008] was tested. Which EC50 did it give?
The EC50 was > 10000 nM.

N[C@H]1CC[C@]2(CN=C(N3CCc4ccccc4[C@@H]3c3ccc(F)cc3)O2)C1 (single isomer, unassigned) [Compound 3078] was tested. Which EC50 did it give?
The EC50 was 127 nM.

For CN1CCC2(CC1)COC(N1CCc3ccccc3[C@@H]1c1ccc(F)cc1)=N2 [Compound 3058, (S)-2-(1-(4-fluorophenyl)-3,4-dihydroisoquinolin-2(1H)-yl)-8-methyl-3-oxa-1,8-diazaspiro[4.5]dec-1-ene], which EC50 is on record?
Its EC50 is 380 nM.

test system: mouse BV2 cells; assay: secretion of progranulin from mouse BV2 cells; format: cell-based; conditions: not given
Description: The compounds disclosed herein (e.g., compounds of Formula I, II, IIa, IIb, III, and as shown in Tables A and B) can increase the amount of progranulin or granulin in a subject. In some cases, the compounds increase the amount of progranulin in a subject. In some cases, the compounds increase the amount of granulin in a subject. In some cases, the compounds affect cells to increase secretion of progranulin. Solifenacin is a drug currently used for urinary incontinence. […] As such, the compounds disclosed herein, (e.g., compounds of Formula I, II, IIa, IIb, III, and as shown in Tables A and B) can be useful in treating disorders associated with aberrant (e.g., reduced) progranulin secretion or activity.

For O=C(O[C@H]1CN2CCC1CC2)N1CCc2ccccc2[C@@H]1c1ccccc1 [Solifenacin], which secretion of progranulin is on record?
Its secretion of progranulin is “causes the secretion of progranulin”.
